Tested on: C3H/10T1/2 clone 8 cells
Assay: Two-stage transformation assay in C3H10T1/2 cells
Assay type: cell-based, mouse
Conditions: DMBA (0.25 μg/ml), TPA (0.1 μg/ml)
Description: This 10T1/2 cell line of mouse embryo fibroblasts has been widely used as an experimental system to study neoplastic transformation induced by a variety of agents, such as polycyclic hydrocarbons, methylating agents, and X-rays. Two-stage transformation assays, with 3-methylcholanthrene (MCA) or DMBA as inducer and TPA as promoter, were performed in these tests.
C3H10T1/2 Cl 8 cells were purchased from the American Type Culture Collection (ATCC CCL 226, Rockville, Md.) and maintained in Eagle's basal medium with Earle's salts (EBME) containing 10% (v/v) fetal bovine serum (FBS, Gibco Laboratories, Chagrin Falls, Ohio) without antibiotics, and sodium bicarbonate (2.2 gl). Cells were seeded at 5×10^4 per 75 cm^2 flask and grown in a humidified incubator containing 5% carbon dioxide in air at 37° C. Cells used in all these experiments were passage between 10-13.
Two-stage transformation assays in C3H10T1/2 cells were performed according to a procedure modified from that described in Mondal et al. (1976) Cancer Res. 36:2254-2260. One thousand cells obtained from freshly confluent flasks were seeded per well in 12-well plate containing 2 ml of medium (12 wells per experimental point). After incubation at 37° C. for three days, MCA or DMBA (2 mg/ml stock solution in DMSO) was added to give final concentrations of 0.25 μg/ml. Carcinogen-containing medium was removed from the growing cultures after 24 hours and cells were rinsed once with PBS before addition of fresh EBME supplemented with 10% FBS and gentamycin (25 μg/ml). […] TPA and test compounds were added to the medium each time the medium was changed. Medium was changed on all plates twice weekly. After confluency was reached, the FBS concentration was reduced to 5% and amphotericin B (fungizone, 1.5 μg/ml) was added to the medium (see Reznikoff et al. (1973) Cancer Res. 33:3239-3249 and Bertram (1979) Cancer Lett. 7:289-298). Subsequent medium changes were performed weekly. Cultures were fixed with methanol and stained with Giemsa at the seventh week. Type II and III transformed foci were scored according to the teachings of Landolph “Transformation Assay of Established Cell Lines: Mechanism and Application,” Eds. Kakunaga et al. (Toronto: Oxford University Press, 1985), at pp. 185-199.

[1] = all-trans-retinyl acetate (0.3 μg/ml)

| Structure (SMILES) | No. of wells foci/total no. of wells [1] | Total No. of foci/no. wells scored [1] | Total No. type II [1] | Total No. type III [1] | Wells with foci (%) [1] | No. of wells foci/total no. of wells (aspirin 200 μM) | Total No. of foci/no. wells scored (aspirin 200 μM) | Total No. type II (aspirin 200 μM) | Total No. type III (aspirin 200 μM) | Wells with foci (%) (aspirin 200 μM) |
| --- | --- | --- | --- | --- | --- | --- | --- | --- | --- | --- |
| CC(=O)OC/C=C(C)/C=C/C=C(C)/C=C/C1=C(C)CCCC1(C)C [all-trans-retinyl acetate] | 0/12 | 0/12 | 0 | 0 | 0% |  |  |  |  |  |
| CC(=O)Oc1ccccc1C(=O)O [aspirin] |  |  |  |  |  | 0/12 | 0/12 | 0 | 0 | 0% |
